From PubChem BioAssay AID1963851 (Molecular Pharmacology Branch, DTP, NCI, 2024)
“And” between values parts separate entries of the source, which are not always exact repeats. Equal entries are not always repeated.

System: 188146-221-R-J1-PDC complex spheroid viability
Test: Anticancer human tumor 188146-221-R-J1-PDC patient-derived colon adenocarcinoma cell line growth inhibition [POLQ]
Settings: for viability, T/C: stronger effect = lower value; for IC50: curve of compound
Protocol: Multicellular complex tumor spheroid response to Polymerase (POL) inhibitors (novobiocin, ART-558, RP6685) in combination with a variety of drugs and investigational agents in selected tumor cell lines
The POL inhibitors (novobiocin, ART-558, and RP6685) were evaluated both individually and in combination with standard of care and investigational anticancer small molecules within a complex spheroid model of solid tumors. . Complex spheroids include a stromal component modeled by human endothelial cells (HUVEC) and fibroblasts modeled by human mesenchymal stem cells (MSCs). The concentration ranges selected for each drug and investigational agent were based upon clinically achievable concentrations if the clinical Cmax of the agent was known.
Compounds. The drugs and investigational agents: novobiocin (NSC847541), ART-558 (NSC835418), RP-6685 (NSC848927), peposertib (NSC802822), ceralasertib (NSC780249), elimusertib (NSC800525), camonsertib (NSC841442), AZD-1390 (NSC803789), olaparib (NSC753686), talazoparib (NSC767125), rucaparib (NSC756644), sotorasib (NSC818433), MRTX-1133 (NSC836407), SN-38 (NSC673596), topotecan (NSC609699), epotoside (NSC141540), doxorubicin (NSC123127), gemcitabine (NSC613327), 5-fluorouracil (NSC19893), paclitaxel (NSC125973), vemurafenib (NSC761431), MSA-2 (NSC828583), SN-011 (NSC837082), adavosertib (NSC754352), prexasertib (NSC758257), carboplatin (NSC241240) and oxaliplatin (NSC266046), were obtained from the National Cancer Institute (NCI) Developmental Therapeutics Program Chemical Repository (21). The FDA-approved anticancer drug set is available from the Developmental Therapeutics Program at https://dtp.cancer.gov/organization/dscb/obtaining/. […] The stock solutions were prepared in dimethyl sulfoxide (DMSO, Sigma-Aldrich, St. Louis, MO, cat. D2650), except for the platinum compounds which were prepared in saline (Quality Biological, Gaithersburg, MD, cat. 114-055-101), at 800-fold the tested concentration and stored at -70 degrees C prior to their use. All drugs and investigational agents were tested over a range starting from a high concentration at or near the clinical Cmax and decreasing in half-log increments. If the clinical Cmax for an agent had not been determined, the highest concentration tested was 10 microM, except for SN-38, which was tested at a high concentration of 1 microM.
Cell Culture. All cells were maintained in an incubator at 37 degrees C and 5% CO2 with 95% humidity. The PDC lines were cultured according to standard operating procedures established by the NCI PDMR (https://pdmr.cancer.gov). Table 3 of the manuscript, lists the cell lines along with the number of the three cell types plated to form the mct-spheroids and media for tumor cell growth. After thawing, all PDC lines, except 997537-175-T-J1-PDC and 415267-285-R-J2-PDC, were cultured in Matrigel-coated flasks prepared with a working solution of 1X Ham's F-12 nutrient mix, without supplementation (Thermo Fisher Scientific, cat. 11765054), 100 U/mL penicillin-streptomycin (Thermo Fisher Scientific, cat. 15140122), and 2.5% Matrigel (Corning Inc., Corning, NY, cat. 354248) for the first three passages. The two PDC lines 997537-175-T-J1-PDC and 415267-285-R-J2-PDC were cultured on uncoated flasks. The 857933-349-R-J2-PDC line was cultured in 6C/Colon 1B media containing advanced DMEM/F-12 (Thermo Fisher Scientific, cat. 12634028), 10 mM HEPES (Thermo Fisher Scientific, cat. 15630080), 1X GlutaMAX supplement (Thermo Fisher Scientific, cat. 35050061), 0.1 mg/mL primocin (InvivoGen, San Diego, CA, cat. ant-pm-2), 10% defined fetal bovine serum, heat inactivated (HyClone Laboratories Inc., Logan, UT, cat. SH30070.03HI), 50% L-WRN conditioned media (ATCC, cat. CRL-3276), 1.25 mM N-Acetyl-L-cysteine (Sigma-Aldrich, cat. A9165), 10 mM nicotinamide (Sigma-Aldrich, cat. N0636), 1X B-27 supplement (Thermo Fisher Scientific, cat. 17504044), 1X N-2 supplement (Thermo Fisher Scientific, cat. […]
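Also: spheroids exposed to compounds for seven days.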
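For viability, T/C in this document: 100% = DMSO vehicle control viability.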

Row | SMILES | viability, T/C (compound 0.0316 µM) | viability, T/C (compound 0.1 µM) | viability, T/C (compound 0.316 µM) | viability, T/C (compound 1 µM) | viability, T/C (compound 3.16 µM) | viability, T/C (compound 10 µM) | IC50 | viability, T/C (compound 0.00316 µM) | viability, T/C (compound 0.01 µM) | viability, T/C (compound 0.00949 µM) | viability, T/C (compound 0.03 µM) | viability, T/C (compound 0.0949 µM) | viability, T/C (compound 0.3 µM) | viability, T/C (compound 0.949 µM) | viability, T/C (compound 3 µM) | viability, T/C (compound 0.000316 µM) | viability, T/C (compound 0.001 µM)
1 | C#Cc1c(F)ccc2cc(O)cc(-c3ncc4c(N5CC6CCC(C5)N6)nc(OCC56CCCN5CC(F)C6)nc4c3F)c12 (stereo unspecified) | 100% and 103% and 99.2% | 97.1% and 105% and 99.9% | 90.5% and 81.7% and 89.8% | 96.4% and 100% (2×) | 98.2% and 99.9% and 104% | 89.1% and 102% and 85.3% | > 10000 nM |  |  |  |  |  |  |  |  |  | 
2 | C=CC(=O)N1CCN(c2nc(=O)n(-c3c(C)ccnc3C(C)C)c3nc(-c4c(O)cccc4F)c(F)cc23)C(C)C1 (stereo unspecified) | 113% and 101% and 99.7% | 104% and 89.7% and 107% | 95.9% and 90.8% and 87.1% | 109% and 113% and 108% | 92.2% and 92.1% and 101% | 68% and 102% and 77.7% | > 10000 nM |  |  |  |  |  |  |  |  |  | 
3 | C=CCn1c(=O)c2cnc(Nc3ccc(N4CCN(C)CC4)cc3)nc2n1-c1cccc(C(C)(C)O)n1 | 94.6% and 104% and 95.5% | 98.4% and 100% and 113% | 99% and 117% and 98.4% | 60.4% and 62.4% and 59% |  |  | > 1000 nM | 96.3% and 101% and 120% | 104% and 117% and 103% |  |  |  |  |  |  |  | 
4 | CC(=O)O[C@H]1C(=O)[C@@]2(C)[C@H]([C@H](OC(=O)c3ccccc3)[C@]3(O)C[C@H](OC(=O)[C@H](O)[C@@H](NC(=O)c4ccccc4)c4ccccc4)C(C)=C1C3(C)C)[C@]1(OC(C)=O)CO[C@@H]1C[C@@H]2O |  |  |  |  |  |  | 12.2 nM and 13.3 nM and 17.4 nM |  |  | 58.2% and 63% and 74.9% | 20.7% and 18.6% and 27.6% | 13.3% and 12.8% and 9.47% | 11.7% and 11.9% and 11.2% | 15.4% and 12.2% and 9.82% | 13.5% and 12.8% and 9.87% |  | 
5 | CC(C)n1c(=O)n(C)c2cnc3cc(F)c(-c4ccc(OCCCN5CCCCC5)nc4)cc3c21 | 96.9% and 102% and 108% | 111% and 96.7% and 100% | 88.3% and 89.4% and 92.5% | 105% and 101% and 110% | 104% and 106% and 88.8% | 77% and 95.2% and 71.2% | > 10000 nM |  |  |  |  |  |  |  |  |  | 
6 | CC1COCCN1c1cc(-c2ccnn2C)c2ccnc(-c3ccn[nH]3)c2n1 (stereo unspecified) | 86.5% and 92.4% and 75% | 74.4% and 67.1% and 60.5% | 42.4% and 42.7% and 43.7% | 19.7% and 27.9% and 21.6% | 17% and 16.9% and 14.9% | 14.1% and 11.3% and 13.9% | 239 nM and 230 nM and 198 nM |  |  |  |  |  |  |  |  |  | 
7 | CC1COCCN1c1cc(C2(O)CC3CCC(C2)O3)c2cnn(-c3ccn[nH]3)c2n1 (stereo unspecified) | 92% and 93.4% and 87% | 84.8% and 75% and 73.3% | 44.9% and 50.6% and 53.1% | 28.2% and 28.1% and 26% | 21.8% and 18.4% and 19.3% | 6.59% and 6.67% and 8.27% | 321 nM and 329 nM and 342 nM |  |  |  |  |  |  |  |  |  | 
8 | CC1COCCN1c1cc(C2(S(C)(=N)=O)CC2)nc(-c2ccnc3[nH]ccc23)n1 (stereo unspecified) | 100% and 105% and 99.8% | 95.1% and 99.5% and 101% | 89.3% and 114% and 98% | 94.8% and 91.6% and 89.8% | 68.1% and 61.6% and 60.5% | 23.7% and 27.7% and 21.9% | 5050 nM and 4620 nM and 4330 nM |  |  |  |  |  |  |  |  |  | 
9 | CCCS(=O)(=O)Nc1ccc(F)c(C(=O)c2c[nH]c3ncc(-c4ccc(Cl)cc4)cc23)c1F | 104% and 98.2% and 96.2% | 108% and 92.2% and 102% | 111% and 95.7% and 82.7% | 90.1% and 79.7% and 80.1% | 83.9% and 85.2% and 81.8% | 40.6% and 36.2% and 25.4% | 7790 nM and 7060 nM and 5830 nM |  |  |  |  |  |  |  |  |  | 
10 | CC[C@@]1(O)C(=O)OCc2c1cc1n(c2=O)Cc2cc3c(CN(C)C)c(O)ccc3nc2-1 | 101% and 92.7% and 97.3% | 71.1% and 63.3% and 63.1% |  |  |  |  | > 100 nM | 87.8% and 92.4% and 88.8% | 103% (2×) and 107% |  |  |  |  |  |  | 101% and 91.4% and 104% | 99.7% and 100% and 110%
11 | CCc1c2c(nc3ccc(O)cc13)-c1cc3c(c(=O)n1C2)COC(=O)[C@]3(O)CC | 35.4% and 45.1% and 29.7% | 18% and 23.1% and 19.6% | 12% and 12.2% and 13.3% | 6.11% and 8.93% and 6.3% |  |  | 20.9 nM and 25.1 nM and 19 nM | 98.1% and 104% and 88.5% | 73.8% and 73.1% and 74.3% |  |  |  |  |  |  |  | 
12 | CCc1cc2c(N3CCc4c(cc(Cn5ccnc5)cc4-c4cn(C)nc4C(F)(F)F)C3=O)cc(C)nc2c(OC)n1 | 114% and 97.3% and 106% | 114% and 95.4% and 108% | 95.9% and 83.1% and 98.9% | 85.5% and 80.4% and 92.5% | 71% and 77.1% and 66.7% | 41.5% and 47.2% and 47.6% | 7260 nM and 9620 nM and 8600 nM |  |  |  |  |  |  |  |  |  | 
13 | CCc1cc2c(N3CCc4c(cc(Cn5ccnc5)cc4-c4cn(C)nc4C(F)(F)F)C3=O)ccnc2c(OC)n1 | 103% and 102% and 97.4% | 100% and 84.5% and 101% | 100% and 99.4% and 92.2% | 92.7% and 93.4% and 98.2% | 69.5% and 74% and 71.6% | 48.1% and 54.2% and 57.5% | 9010 nM and > 10000 nM |  |  |  |  |  |  |  |  |  | 
